Measurements from publication PMC3291892 (Bioconjugate Chemistry, 2012).

Tests used:
hA3AR [1] = biological target: T1, hA3AR (Homo sapiens, UniProt P0DMS8); type: cell-based; conditions: at 10 μM; relative to NECA 10 μM
T1 sequence (P0DMS8 1-318): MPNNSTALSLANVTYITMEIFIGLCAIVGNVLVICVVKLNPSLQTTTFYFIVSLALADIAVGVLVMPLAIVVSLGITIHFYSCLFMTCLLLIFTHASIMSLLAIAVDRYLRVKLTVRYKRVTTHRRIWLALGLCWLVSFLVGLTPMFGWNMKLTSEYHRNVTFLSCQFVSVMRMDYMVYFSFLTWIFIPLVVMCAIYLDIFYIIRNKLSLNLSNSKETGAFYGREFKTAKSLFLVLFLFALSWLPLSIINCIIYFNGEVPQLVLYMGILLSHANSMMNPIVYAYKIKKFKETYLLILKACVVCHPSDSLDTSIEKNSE

hA3AR [2] = biological target: T1, hA3AR; test: Radioligand binding at hA3AR; conditions: A3AR versus A1AR

Compound	A3AR efficacy in the functional assay (in words) (hA3AR [1])	selectivity for A3AR in comparison to the A1AR (hA3AR [2]) [fold]
(1S, 2R, 3S, 4R, 5S)-4-[2-Chloro-6-{3-(1,7-octadiynyl)}-9H-purin -9-yl]- 2, 3-dihydroxybicyclo[3.1.0]hexane-1-carboxylic acid N-methylamide [Compound 10]	intermediate efficacy	–
C#CCNc1nc(Cl)nc2c1ncn2[C@H]1[C@H](O)[C@H](O)[C@]2(C(=O)NC)C[C@H]12 [Compound 31, (1S, 2R, 3S, 4R, 5S)-4-(2-Chloro-6-(prop-2-ynylamino)-9H-purin-9-yl)-2,3-dihydroxy-N-methylbicyclo[3.1.0]hexane-1-carboxamide]	–	270
(1S, 2R, 3S, 4R, 5S)-4-[2-Chloro-6-{3-(1,8-nonadiynyl)}-9H-purin -9-yl]- 2, 3-dihydroxybicyclo[3.1.0]hexane-1-carboxylic acid N-methylamide [Compound 11]	intermediate efficacy	–
CNC(=O)[C@@]12C[C@@H]1[C@@H](n1cnc3c(NCc4cccc(C#CCCCc5cn(-c6ccc(F)c(N)c6)nn5)c4)nc(Cl)nc31)[C@H](O)[C@@H]2O [Compound 16, (1S, 2R, 3S, 4R, 5S)-4-(2-Chloro-6-(3-(5-(1-(4-fluoro-3-amino-phenyl)-1H-1,2,3-triazol-4-yl)pent-1-ynyl)benzylamino)-9H-purin-9-yl)-2,3-dihydroxybicyclo[3.1.0]hexane-1-carboxylic acid-N-methylamide]	intermediate efficacy	–
CNC(=O)[C@@]12C[C@@H]1[C@@H](n1cnc3c(NCc4cccc(C#CCCCCCc5cn(-c6ccc(F)c([N+](=O)[O-])c6)nn5)c4)nc(Cl)nc31)[C@H](O)[C@@H]2O [Compound 14, (1S, 2R, 3S, 4R, 5S)-4-(2-Chloro-6-(3-(7-(1-(4-fluoro-3-nitrophenyl)-1H-1,2,3-triazol-4-yl)hept-1-ynyl)benzylamino)-9H-purin-9-yl)-2,3-dihydroxybicyclo[3.1.0]hexane-1-carboxylic acid-N-methylamide]	intermediate efficacy	–
